The record followed here is US5334595A, “Pyrazoloquinolones as anticancer agents” (priority 1992, dated 1994).

The test system of data set [1] is P388 murine leukemia cells. Description: In vitro cytotoxicity, continuous (48-hour) exposure of P388 cells. It counts as cell-based. To be noted: Mus musculus, read-out: in vitro cytotoxicity IC50, cont. exp. The method, boiled down: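 For continuous exposure, log-phase P388 murine leukemia cells were co-incubated with a range of compound concentrations for 48 hours and total cells counted on a Coulter counter. For one-hour exposure, survival was scored as soft-agar colonies after 7-10 days at 37° C and 5% CO2. Survival is expressed relative to untreated control.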

Data set [2] is described as follows: In vivo antitumor assay, B16(ip). On the set-up: species or system mice. To be noted: mouse, in vivo, drug ip. The source says:
(§1) Mice: Inbred: C3H/He and NCR-nu; and Hybrids: B6D2F1 (C57BL/6 females×DBA/2 males, CD2F1 (Balb/c females×DBS/2 males) and B6C3fl (C57BL/6×C3H) were bred at Wayne State University from strains obtained from the Frederick Cancer Research Facility, Frederick, Maryland or purchased from commercial suppliers.
(§2) Tumors: Murine Tumor: P388 and an adriamycin-resistant (ADR) subline P388/ADR leukemia and the following transplantable solid tumors of mice were used for in vivo testing: B16 melanoma (B16), pancreatic ductal adenocarcinoma No. 03 (Pane 03), colon adenocarcinoma No. 38 (colo 38), lung carcinoma No. 12 (LC 12), mammary ductal adenocarcinoma No. 16/C (Mam16C) and an adriamycin-resistant subline Mam16C/ADR. Human tumor: A single human tumor, mammary carcinoma MX-1 was used for in vivo testing. All tumors are in the Developmental Therapeutics Program frozen tumor respository, maintained by the Biological Testing Branch, Frederick Maryland. Each has a detailed description, code identification number, and list of references at the National Tumor Repository. Murine tumors were maintained in the mouse strain of origin and were transplanted in the appropriate F1 hydrid (or the strain of origin) for therapy trials. Human mammary carcinoma MX-1 (MX1) was maintained as a subcutaneous implant in either athymic Swiss (Cr: NIH(S)-nu) or athymic random bred (NCR-nu) mice and transplanted in NCR-nu for therapy trials.
(§3) For P388 and P388/ADR leukemia studies the tumor cells were implanted either interperitoneally (IP) or intravenously (IV) on day zero and treatment was started on day one. For B16 melanoma (B16) studies, the tumor cells were implanted IP on day zero and treatment was started on day one. Titered controls were also included to facilitate the calculation of tumor cell kill. For mammary carcinoma MX-1 studies, tumors were implanted with 1) subcutaneously (sc) (14-mg fragment of sc donor tumor) in the axillary region or 2) under the subrenal capsule (SRC) (10×10×10 ocular micrometer unit fragment of sc donor tumor).
(§4) Quantitative end points used to assess antitumor activity included % Increased Life Span (% ILS), Tumor Cell Kill (Log10 kill), and Tumor Growth Inhibition (T/C). Long Term Survivors (45 or 60 day) were excluded from calculations of %ILS and Tumor Cell Kill.
(§5) Endpoints were calculated as follows: [formula] where Dt is the median day of death for treated and Dc is the median day of death for control groups. A % ILS ≥20 or ≥25 for P388 and B16 intraperitoneal models, respectively, is indicative of a significant degree of antitumor activity. A % ILS ≥75 or ≥50 for P388 and B16 intraperitoneal models, , respectively, is indicative of a high degree of antitumor activity and is the level used by National Cancer Institute to justify further development if other requirements are met (termed DN-2 level activity). Minimum quantitative activity limits for additional P388 models (e.g. P388/ADR and P388, IV) have not been defined.

Data set [3] has as its system B16 melanoma (B16). The experiment in a line: In vivo antitumor assay, B16(ip). On the set-up: species or system mice. To be noted: drug ip; for ILS %: qd 1,5,9, exp SD-17, at dose of MTD; for Log Kill: qd 1,5,9, exp SD-17, log10.
Description: as §1, §2, §3, §4, §5

Data set [4] in a line: In vivo antitumor assay, Colo38(sc). Also noted: species or system mice. To be noted: mouse, in vivo.
Description: as §1, §2
(§6) Chemotherapy: For pancreatic ductal adenocarcinoma No. 3, colon adenocarcinoma No. 38 (colo 38), lung carcinoma No. 12 LC 12) and both adriamycin-sensitive (RP) and-resistant (ADR) mammary ductal adenocarcinoma No. 16 (Mam16) tumors, bilateral tumor implants were used to help ensure a more uniform tumor burden per mouse (thus reducing the requirement for greater numbers of mice per group). The animals necessary to begin an experiment were pooled, implanted bilaterally s.c. on day zero with 30-60 mg tumor fragments using a 12-gauge trocar, and again pooled before randomization to the various treatment and control groups. Chemotherapy was started within three days after tumor implantation while the number of cells per mouse was relatively small (1×10^7 -1×10^8 cells).
as §4
(§7) Tumors were measured with a caliper once or twice weekly (as needed) until either tumors exceeded 1600 mg or cure was assured. Tumor weights were estimated from two-dimensional measurements: Tumor Weight (mg)=(a×b^2) / 2, where a and b are the tumor length and width (ram) respectively. Measurements were carried out simultaneously in both treatment and control groups. When the control group tumors reached approximately 750-1500 mg in size (median of group), the median tumor weight of each group was determined (including zeros). The T/C value in percent is an indication of antitumor effectiveness. The % T/C was calculated from the following formula for solid murine tumor models: [formula] where T and C are median tumor weights of the treatment and control groups, respectively. […] A T/C value <10% is indicative of a high degree of antitumor activity and is the level used by National Cancer Institute to justify further development if other requirements are met (termed DN-2 level activity). By convention the T/C value for the mammary carcinoma MX-1 models is calculated by the parameter of change in tumor weight .

Data set [5] concerns colon adenocarcinoma No. 38 (colo 38). The experiment in a line: In vivo antitumor assay, Colo38(sc). On the set-up: species or system mice.
Description: as §1, §2, §6, §4, §7

Data set [6] can be described thus: In vivo antitumor assay, Mam16C/RP (sc). On the set-up: species or system mice. To be noted: mouse, in vivo, drug iv.
Description: as §1, §2, §6, §4, §7

For data set [7], the system named is adriamycin-sensitive (RP) mammary ductal adenocarcinoma No. 16. The experiment in a line: In vivo antitumor assay, Mam16C/RP (sc). On the set-up: species or system mice. To be noted: drug iv.
Description: as §1, §2, §6, §4, §7

Setting [8] is: drug iv, sc, iv, qd 3-16, exp 1038.
The mark [9] stands for this setting: Mam16C/RP (sc), bid 1-5, exp 924.
[10] abbreviates: P388, continuous exposure (48-hour).
Setting [11] is: qd 1,5,9, exp SD-17, MTD not achieved, maximum dose tested.
Setting [12] is: drug iv, qd 3-4, bid 5,6,12-17, exp 1036.
Where [13] appears, read: drug iv,sc: iv, qd 3-9, sc, qd 11-19, exp 1163.

Read-outs that look alike come from different tables or passages of the source. Some results are limits rather than exact numbers.

On to `Cc1cc(-c2c(F)cc3c4nn(CCN(C)C)c(=O)c-4cn(C4CC4)c3c2F)cc(C)n1.O=C(O)/C=C/C(=O)O` [Example 1, 5-Cyclopropyl-6,8-difluoro-2,5-dihydro-2-[2-(dimethylamino)-ethyl]-7-(2,6-dimethyl-4-pyridinyl)-3H-pyrazolo[4,3-c]quinolin-3-one (E)-2-butendioate (1:1)], for which the IC50 in data set [1] (P388, 48 h) amounted to 0.04 µM. The MTD in data set [2] (qd 1,5,9, exp SD-17) was 78 mg/kg; in data set [4] (drug iv, qd 3,7,11, exp 1038), 78 mg/kg; in data set [4] (setting [8]) it was 58 mg/kg; in data set [6] (setting [9]), 20 mg/kg. Also, in data set [3], the ILS % came to 85%. Also, the “Log Kill” value in data set [3] was found to be 1.9; in data set [5] (drug iv, qd 3,7,11, exp 1038), 0.60; in data set [5] (setting [8]), 1.2; in data set [7] (setting [9]) it was 1.2. The T/C % worked out at 14% in data set [5] (drug iv, qd 3,7,11, exp 1038); 0% in data set [5] (setting [8]); 13% in data set [7] (setting [9]).
On to `Cc1cc(-c2c(F)cc3c4nn(CCCN(C)C)c(=O)c-4cn(C4CC4)c3c2F)cc(C)n1` [Example 14], for which the half-inhibitory concentration (IC50) in data set [1] (setting [10]) amounted to 0.38 µM. In addition, the MTD was found to be 28 mg/kg in data set [2] (qd 1,5,9, exp SD-17); 133 mg/kg in data set [4] (drug iv, qd 3,12-14, exp 905); 101 mg/kg in data set [6] (Mam16C/RP, bid 1-8, exp 924). This compound yielded an ILS % in data set [3] of 58%. Further, the “Log Kill” value in data set [3] was 1.3; in data set [5] (drug iv, qd 3,12-14, exp 905), 0.54; in data set [7] (Mam16C/RP, bid 1-8, exp 924) it was 1.5. The T/C % in data set [5] (drug iv, qd 3,12-14, exp 905) is given as 38%; in data set [7] (Mam16C/RP, bid 1-8, exp 924) it was 8%.
Consider `Cc1cc(-c2c(F)cc3c4nn(CCNCCO)c(=O)c-4cn(C4CC4)c3c2F)cc(C)n1` [Example 17], for which the IC50 in data set [1] (setting [10]) was 1.2 µM. The compound further displayed an MTD in data set [2] (qd 1,5,9, exp SD-17) of 180 mg/kg. Besides, in data set [3], the ILS % is 61% and the “Log Kill” value came out at 1.4.
`Cc1cc(-c2c(F)cc3c4nn([C@H]5CC[C@@H](N(C)C)CC5)c(=O)c-4cn(C4CC4)c3c2F)cc(C)n1` [Example 51a] showed an MTD in data set [2] (setting [11]) above 15 mg/kg. In data set [3], the ILS % was found to be 29% and the “Log Kill” value is on record as 0.67. In data set [4] (setting [12]), this compound yielded an MTD of 63 mg/kg. The T/C % in data set [5] (setting [12]) stood at 39%.
`Cc1cc(-c2c(F)cc3c4nn([C@H]5CC[C@H](N(C)C)CC5)c(=O)c-4cn(C4CC4)c3c2F)cc(C)n1` [Example 51b]: the MTD in data set [2] (setting [11]) is above 99 mg/kg. Also, in data set [3], the ILS % is reported as 47% and the “Log Kill” value was 1.0. In data set [4] (drug iv, qd 3-4,15,17, bid 5.7, exp 1036, MTD not achieved, maximum dose tested), this compound registered an MTD above 220 mg/kg. In data set [5] (drug iv, qd 3-4,15,17, bid 5.7, exp 1036), this compound yielded a T/C % of 13%.
Compound `Cc1cc(-c2c(F)cc3c4nn([C@H]5CC[C@@H](N)CC5)c(=O)c-4cn(C4CC4)c3c2F)cc(C)n1` [Example 56a, 2-(Cis-4-Aminocyclohexyl)-5-cyclopropyl-6,8-difluoro-2,5-dihydro-7-(2,6-dimethyl-4-pyridinyl)-3H-pyrazolo-[4,3-c]quinolin-3-one] had an MTD in data set [4] (setting [13]) of 137 mg/kg. The T/C % in data set [5] (setting [13]) worked out at 40%.
